The text below walks through data of article PMC3485206, “Integrative Binding Sites within Intracellular Termini of TRPV1 Receptor” (PLoS ONE, 2012).

“Also recorded” adds a separate entry of the source. Some results are limits rather than exact numbers.

The nature of assay [1]: Surface plasmon resonance, binding to PC/PIP2 liposomes on sensor chip. To be noted: for Kd: SPR equilibrium binding, PC/PIP2 (20∶1) liposomes, 25°C, HBSS, read-out: equilibrium dissociation constant KD; for binding to PIP2 containing liposomes (in words): SPR, PC/PIP2 liposomes. The method, then:
All SPR measurements were performed at 25°C using a liposome-coated NLC chip in aProteOn XPR36 Protein Interaction Array System (Bio-rad, Hercules, CA, USA). […] Lipid solution (10 mg/ml) in HBSS was mixed with 8 µM oligonucleotide 5′-[…]-3′, modified at the 3′ end with cholesterol (Generi-Biotech, Hradec Kralove, Czech Republic), and the mixture was extruded using a LiposoFast Basic apparatus (Avestin Europe, Mannheim, Germany) with a polycarbonate membrane with a 100-nm pore diameter (Avestin Europe, Mannheim, Germany). The lipid/DNA ratio was 1200∶1. The vesicles were then incubated with 8 µM anti-sense oligonucleotide 5′-[…]-3′, modified at the 5′ end with biotin (Generi-Biotech, Hradec Kralove, Czech Republic), and washed by centrifugation (50,000 g) for 30 min at 4°C. The vesicles were diluted to a final concentration of 1 mg/ml in HBSS and immobilized on the streptavidin-coated NLC chip (Bio-rad, Hercules, CA, USA) surface at a flow rate of 25 µl/min for 10 min to give ∼800 −1500 resonance units (RU). All SPR measurements were carried out in HBSS at a flow rate of 30 µl/min for both the association and dissociation phase of the sensograms. For determining equilibrium binding, the association phases of five different concentrations of each protein were brought to near-equilibrium values (Req). Surfaces were typically regenerated with 50 µl of 1 M NaCl and 20 mM glycin buffer, pH 3.5. The sensograms were corrected for sensor background by interspot referencing (the sites within the 6×6 array which are not exposed to ligand immobilization but are exposed to analyte flow), and double referenced by subtraction of the analyte using a “blank” injection. Assuming a Langmuir-type binding between the protein (P) and protein binding sites (S) on vesicles (i.e. P + S ↔ PS), Req values were then plotted versus protein concentration (P0), and the KD value was determined by nonlinear least-squares analysis of the binding isotherm using the equation Req = Rmax/(1+KD/P0).
A general note: SPR reads the build-up and loss of mass on a sensor chip optically.

A further assay has as its system CaM. Details: method as in PMID 18755153. To be noted: TRPV1-CT fusion protein mutants; cited from earlier work.
Assay [2] can be described thus: Steady state fluorescence anisotropy binding assay with PIP2-Bodipy. The note with it: for Kd: PIP2-Bodipy 10 nM titrated with protein or peptide, room temperature, read-out: equilibrium dissociation constant KD. The method, then: (§1) Peptides were dissolved in 50 mM Tris-HCl (pH 7.5), 100 mM NaCl buffer and were used for measurements of fluorescence anisotropy. Steady-state fluorescence anisotropy measurements were performed in an ISS Photon Counting Steady-State Spectrofluorimeter (ISS PC1TM) at room temperature with a PIP2-Bodipy® FL C5, C6-PtdIns(4,5)P2 molecular probe (Invitrogen, cat. n. B22627, Figure S3A), hereafter denoted as PIP2-Bodipy and the control experiment was done with 16∶0-06∶0 NBD PC 1-palmitoyl-2-{6-[(7-nitro-2-1,3-benzoxadiazol-4-yl)amino]hexanoyl}-sn-glycero-3-phosphocholine in chloroform (NBD-PC), (Avanti Polar Lipids, Inc. Cat. n. 810130C, Figure S3B) The PIP2-Bodipy probe was diluted in deionized H2O. The final concentration of the fluorescently labeled probe in the measuring buffer in the cuvette was 10 nM and increasing amounts of peptides and fusion protein TRPV1 respectively were titrated into the cuvette. PIP2-Bodipy excitation and emission wavelengths were set to 500 nm and 512 nm and for NBD – PC 460 nm and 534 nm respectively. At each peptide concentration, steady-state fluorescence anisotropy was recorded. The fraction of TRPV1s regions or their mutants bound to fluorescent probe was determined from the anisotropy changes using Eq. (1), where FB is the fraction bound, rmin and rmax are the anisotropies of the free and bound PIP2-Bodipy with TRPV1-CT, pTRPV1 regions or its mutants, robs is the observed anisotropy, and Q is the ratio of the intensities of the free and bound protein (fmax/fmin). All experiments were carried out in at least triplicate. [drawing 1] (1)
The FB was plotted against the TRPV1 peptides and fusion proteins concentration respectively and fitted using Eq. (2) to determine the equilibrium dissociation constant (KD). Non-linear data fitting was performed using the package SigmaPlot 2000 (6.1) SPSS Inc. P1 is the concentration of PIP2-Bodipy and P2 is the concentration of TRPV1 fusion protein or TRPPV1 synthetic peptides. [drawing 2] (2)
A general note: Polarisation of emitted light reports the rotation of a fluorescent probe.

Assay [3] in a line: Control steady-state fluorescence anisotropy with NBD-PC. It counts as binding. To be noted: NBD-PC 10 nM. The protocol:
as §1, with “PIP2-Bodipy excitation and emission wavelengths were set to 500 nm and 512 nm and for NBD – PC 460 nm and 534 nm respectively.” left out, “All experiments were carried out in at least triplicate. [drawing 1] (1)” left out

Assay [4] in a line: Control SPR with liposomes containing only phosphatidylcholine. The note with it: liposomes not containing PIP2. It counts as binding. The method, then:
All SPR measurements were performed at 25°C using a liposome-coated NLC chip in aProteOn XPR36 Protein Interaction Array System (Bio-rad, Hercules, CA, USA). Liposomes (100 nm in diameter) were made from 1,2-dimyristoyl-sn-glycero-3-phosphocholine (PC) and L-α-phosphatidylinositol-4,5-bisphosphate (PIP2) (Avanti Lipids, Alabaster, AL, USA) at a molar ratio of 20∶1 (PC/PIP2). Lipid solution (10 mg/ml) in HBSS was mixed with 8 µM oligonucleotide 5′-[…]-3′, modified at the 3′ end with cholesterol (Generi-Biotech, Hradec Kralove, Czech Republic), and the mixture was extruded using a LiposoFast Basic apparatus (Avestin Europe, Mannheim, Germany) with a polycarbonate membrane with a 100-nm pore diameter (Avestin Europe, Mannheim, Germany). The lipid/DNA ratio was 1200∶1. The vesicles were then incubated with 8 µM anti-sense oligonucleotide 5′-[…]-3′, modified at the 5′ end with biotin (Generi-Biotech, Hradec Kralove, Czech Republic), and washed by centrifugation (50,000 g) for 30 min at 4°C. […] Assuming a Langmuir-type binding between the protein (P) and protein binding sites (S) on vesicles (i.e. P + S ↔ PS), Req values were then plotted versus protein concentration (P0), and the KD value was determined by nonlinear least-squares analysis of the binding isotherm using the equation Req = Rmax/(1+KD/P0).

Assay [5] is described as follows: ELISA, influence of liposome composition on binding to immobilized TRPV1-CT. To be noted: liposomes of different composition. The method, then: The lipids L-α-phosphatidylinositol-4,5-bisphosphate (PIP2), 1,2-dimyristoyl-sn-glycero-3- Phosphatidylserine (PS), 1,2-dimyristoyl-sn-glycero-3-phosphocholine (PC) and 1,2-dimyristoyl-sn-glycero-3- Phosphatidylethanolamine (PE) were obtained from Avanti Polar Lipis, Inc. A stock solution of each lipid was prepared in chloroform, except for PIP2 stock solution, which was prepared in a chloroform:methanol (2∶1) mixture. Liposomes of the following compositions were prepared: PC, PC/PIP2 97/3%, PC/PIP2 90/10%, PC/PIP2/PS 70/10/20%, PC/PIP2/PS/PE 40/10/20/30%, PC/PIP2/PE 70/10/20%, PC/PIP2/PE 77/3/20%, PC/PE/PS 50/30/20% by mixing appropriate volumes of the stock solutions. After being dried under an N2 stream, lipid films were hydrated with 1× HBSS buffer containing 8 µM oligonucleotide 5′-[…]-3′, modified at the 3′ end with cholesterol (Generi-Biotech, Hradec Kralove, Czech Republic)- followed by extrusion 20 times through a polycarbonate membrane with a 100-nm pore diameter (Avestin Europe, Mannheim, Germany). Finally 8 µM complementary oligonucleotide Biotin conjugate 5′-[…]-3′ (Generi-Biotech, Hradec Kralove, Czech Republic) was added to the liposome mixture. A 20-min incubation was followed by centrifugation and washing steps to remove the unbound oligonucleotide-Biotin conjugate.
96-well micro titer plates were used. […] Absorbance was read at 490 nm using a micro plate reader.
(In general: An ELISA detects its analyte on a solid surface through an enzyme-linked reagent.)

In general, Kd refers to the equilibrium constant for the complex coming apart. Turning to “R778A: single alanine mutant of TRPV1-CT (712–838) thioredoxin fusion protein”, in assay [1], the Kd is greater than 150 µM and the “binding to PIP2 containing liposomes (in words)” value is on record as “total loss of binding affinity; also recorded: inhibited the PIP2 binding”. Further, the “CaM binding (in words)” value in the assay with CaM is on record as “did not prevent CaM binding”.

As to “R771A/R781A: double alanine mutant of TRPV1-CT (712–838) thioredoxin fusion protein”, in assay [1], the Kd came to 33.5 ± 11.7 µM and the “binding to PIP2 containing liposomes (in words)” value is “suppressed this interaction partially”.

For “thioredoxin: fusion tag protein titrated alone as control [reference compound]”, the “binding to PIP2-Bodipy (in words)” value in assay [2] (PIP2-Bodipy 10 nM) is on record as “no thioredoxin–PIP2 binding”.

Take “K770A/R785A: double alanine mutant of TRPV1-CT (712–838) thioredoxin fusion protein”: in assay [1], the Kd was 5.8 ± 0.8 µM and the “binding to PIP2 containing liposomes (in words)” value is “suppressed this interaction partially”.

Regarding “R771A: single alanine mutant of TRPV1-CT (712–838) thioredoxin fusion protein”, the “binding to PIP2 containing liposomes (in words)” value in assay [1] is recorded as “preserves its binding ability to PIP2”. Also, the “CaM binding (in words)” value in the assay with CaM is given as “significantly inhibits the CaM binding”.

Take “TRPV1-CT: rat TRPV1 C-tail amino acids 712–838 expressed in E. coli as fusion protein with thioredoxin and 6× His tags”: the Kd in assay [1] stood at 3 ± 0.4 µM; in assay [2] (listed as WT TRPV1-CT), 3.5 ± 0.9 µM; in assay [2], 3.48 µM. Further, the SPR binding response result in assay [1] (protein washed over PC/PIP2 liposome chip after regeneration step) is recorded as “approx. 1000 RU”. The “interaction with NBD PC (in words)” value in assay [3] is listed as “no interaction”. Further, the “interaction with liposomes containing only PC (in words)” value in assay [4] was “just a weak interaction was detected”. Also, in assay [5], the “selectivity for PIP2 over other lipids (in words)” value is given as “modest selectivity for PIP2 over other used lipids”.

“R771A/R778A: double alanine mutant of TRPV1-CT (712–838) thioredoxin fusion protein”: in assay [1], the dissociation constant (Kd) was greater than 150 µM and the “binding to PIP2 containing liposomes (in words)” value is “total loss of binding affinity; also recorded: avoided PIP2 binding totally”.

With “R781A: single alanine mutant of TRPV1-CT (712–838) thioredoxin fusion protein”, the Kd in assay [1] stood at 9.1 ± 3.8 µM.

B1: K770A/R778A/R785A: triple alanine mutant of TRPV1-CT (712–838) thioredoxin fusion protein (protein, UniProt O35433 712-838, looked up, variant K770A R778A R785A)
chain: FLKCMRKAFRSGKLLQVGFTPDGKDDYRWCFRVDEVNWTTWNTNVGIINEDPGNCEGVARTLSFSLASGRVSGANWKNFALVPLLRDASTRDRHATQQEEVQLKHYTGSLKPEDAEVFKDSMVPGEK
modifications: thioredoxin fusion, His tag
notes: triple alanine mutant of TRPV1-CT (712–838) thioredoxin fusion protein
Regarding B1, in assay [1], the dissociation constant (Kd) was greater than 150 µM and the “binding to PIP2 containing liposomes (in words)” value is recorded as “total loss of binding affinity; also recorded: avoided PIP2 binding totally”.

B2: K770A/R781A/R785A: triple alanine mutant of TRPV1-CT (712–838) thioredoxin fusion protein (protein, UniProt O35433 712-838, looked up, variant K770A R781A R785A)
chain: FLKCMRKAFRSGKLLQVGFTPDGKDDYRWCFRVDEVNWTTWNTNVGIINEDPGNCEGVARTLSFSLRSGAVSGANWKNFALVPLLRDASTRDRHATQQEEVQLKHYTGSLKPEDAEVFKDSMVPGEK
modifications: thioredoxin fusion, His tag
notes: as for B1
B2: in assay [1], the Kd is 3.6 ± 0.5 µM.
